Among the data in patent US20220298146A1, “HETEROCYCLIC DERIVATIVE AND USE THEREOF” (Transthera Sciences (Nanjing), Inc., priority 2019, published 2022) are IC50 values, retold here.

Experiment [1] has as its target T1, Axl (h) (Homo sapiens, UniProt P30530).
T1 construct: purchased
T1 sequence (P30530 26-894): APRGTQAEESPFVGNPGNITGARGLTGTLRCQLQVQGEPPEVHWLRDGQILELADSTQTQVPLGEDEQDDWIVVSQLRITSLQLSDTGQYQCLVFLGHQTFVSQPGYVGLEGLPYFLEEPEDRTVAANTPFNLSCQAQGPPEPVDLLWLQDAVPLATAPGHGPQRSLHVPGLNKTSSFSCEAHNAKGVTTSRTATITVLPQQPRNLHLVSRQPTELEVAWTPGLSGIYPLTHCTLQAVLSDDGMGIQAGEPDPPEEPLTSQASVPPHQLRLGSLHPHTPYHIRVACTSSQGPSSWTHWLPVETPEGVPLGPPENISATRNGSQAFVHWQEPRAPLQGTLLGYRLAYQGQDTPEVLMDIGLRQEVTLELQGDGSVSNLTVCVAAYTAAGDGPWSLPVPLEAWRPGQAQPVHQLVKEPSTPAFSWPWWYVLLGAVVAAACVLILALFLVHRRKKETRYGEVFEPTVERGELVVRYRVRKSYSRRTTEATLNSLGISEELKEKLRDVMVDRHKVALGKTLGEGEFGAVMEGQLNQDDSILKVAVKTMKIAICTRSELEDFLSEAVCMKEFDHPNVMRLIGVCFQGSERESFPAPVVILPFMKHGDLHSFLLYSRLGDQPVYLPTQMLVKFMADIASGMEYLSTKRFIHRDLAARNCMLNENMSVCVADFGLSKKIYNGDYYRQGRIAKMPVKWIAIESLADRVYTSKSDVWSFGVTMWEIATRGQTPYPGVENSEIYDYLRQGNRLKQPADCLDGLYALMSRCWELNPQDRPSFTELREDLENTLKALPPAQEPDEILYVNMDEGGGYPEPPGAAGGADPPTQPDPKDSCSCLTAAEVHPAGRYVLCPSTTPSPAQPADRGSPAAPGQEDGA
Put plainly: Enzymatic activity assay, Axl (h) kinase, [γ-33P]-ATP. The format is biochemical. Particulars: 10 μM [γ-33P]-ATP, 40 min, room temperature; read-out: Inhibitory Activity on Ax1 (h), IC50. The protocol:
(§1) Test samples: the compounds of the present invention, having structures and preparation methods shown above.
(§2) (1) Preparation of Compound Stock Solutions
(§3) Compounds were each dissolved in 100% DMSO to prepare stock solutions with a maximum concentration of 500 μM.
(§4) (2) Preparation of Compound Working Solutions
(§5) The compound stock solutions were diluted to final concentrations of 500 μM, 150 μM, 50 μM, 15 μM, 5 μM, 1.5 μM, 0.5 μM, 0.15 μM and 0.05 μM to prepare compound working solutions (50×).
(§6) (3) Preparation of different enzymatic reaction solutions
Axl (h) enzyme was dissolved in a mixture of 8 mM MOPS (pH 7.0), 0.2 mM EDTA and 250 μM KKSRGDYMTMQIG to prepare an enzyme solution with a final concentration of 1.7 nM. An Mg/ATP mixture of 10 mM magnesium acetate and 10 μM [γ-^33P]-ATP was used to activate the enzymatic reaction.
(§7) The compound working solutions were added to a 384-well plate, with final concentrations of 10000 nM, 3000 nM, 1000 nM, 300 nM, 100 nM, 30 nM, 10 nM, 3 nM and 1 nM, respectively, and then different enzymatic reaction solutions prepared according to the above conditions were added. The reaction solutions were incubated at room temperature for 40 min, and then 0.5% phosphoric acid solutions were added to terminate the reaction. 10 μL of the reaction solution was added dropwise to P30 filter paper which was washed 4 times with a 0.425% phosphoric acid solution and once with methanol and then placed in a scintillation counter for detection. Gray analysis was performed on the results with Image J software, and IC50 values were calculated with GraphPad 5.0 software.

In experiment [2] the target is T2, Mer (h) (Homo sapiens, UniProt Q12866).
T2 construct: purchased
T2 sequence (Q12866 21-999): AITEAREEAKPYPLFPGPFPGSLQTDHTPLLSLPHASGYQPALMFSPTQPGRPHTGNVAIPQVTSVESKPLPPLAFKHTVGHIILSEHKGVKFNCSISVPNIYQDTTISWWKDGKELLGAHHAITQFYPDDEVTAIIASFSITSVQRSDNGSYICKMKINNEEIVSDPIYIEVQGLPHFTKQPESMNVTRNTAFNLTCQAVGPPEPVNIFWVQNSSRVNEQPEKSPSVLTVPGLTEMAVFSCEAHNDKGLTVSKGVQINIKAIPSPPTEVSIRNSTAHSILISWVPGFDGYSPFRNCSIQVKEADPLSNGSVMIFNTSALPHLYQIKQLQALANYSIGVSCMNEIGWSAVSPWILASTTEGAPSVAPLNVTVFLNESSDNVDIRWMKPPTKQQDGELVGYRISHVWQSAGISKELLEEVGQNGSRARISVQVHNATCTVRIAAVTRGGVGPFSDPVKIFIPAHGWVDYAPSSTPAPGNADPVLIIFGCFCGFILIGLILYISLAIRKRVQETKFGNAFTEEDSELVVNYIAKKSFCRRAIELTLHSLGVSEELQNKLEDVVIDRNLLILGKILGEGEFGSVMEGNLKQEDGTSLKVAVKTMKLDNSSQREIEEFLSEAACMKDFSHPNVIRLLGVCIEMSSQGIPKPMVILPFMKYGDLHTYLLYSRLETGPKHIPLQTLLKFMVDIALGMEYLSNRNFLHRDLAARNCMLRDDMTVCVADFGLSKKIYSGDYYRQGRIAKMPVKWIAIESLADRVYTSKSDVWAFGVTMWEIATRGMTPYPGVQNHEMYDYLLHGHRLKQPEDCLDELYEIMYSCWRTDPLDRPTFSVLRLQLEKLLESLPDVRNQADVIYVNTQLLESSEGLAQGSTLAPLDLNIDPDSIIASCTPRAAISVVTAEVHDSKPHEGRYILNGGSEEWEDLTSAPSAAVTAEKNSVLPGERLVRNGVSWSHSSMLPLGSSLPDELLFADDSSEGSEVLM
Put plainly: Enzymatic activity assay, Mer (h) kinase, [γ-33P]-ATP. The format is biochemical. The conditions noted are these: 10 μM [γ-33P]-ATP, 40 min, room temperature; read-out: Inhibitory Activity on Mer (h), IC50. The protocol: as §1, §2, §3, §4, §5, §6
Mer (h) enzyme was dissolved in a mixture of 8 mM MOPS (pH 7.0), 0.2 mM EDTA, 30 mM NaCl and 250 μM GGMEDIYFEFMGGKKK to prepare an enzyme solution with a final concentration of 3.1 nM. An Mg/ATP mixture of 10 mM magnesium acetate and 10 μM [γ-^33P]-ATP was used to activate the enzymatic reaction.
as §7

Structures are written as SMILES.

As for `CC(C)n1cc(-c2ccc(F)cc2)c(=O)c(C(=O)Nc2ccc(Oc3ccnc(N)c3Cl)cn2)n1` [Compound 11, N-(5-((2-amino-3-chloropyridin-4-yl)oxy)pyridin-2-yl)-5-(4-fluorophenyl)-1-isopropyl-4-oxo-1,4-dihydropyridazine-3-carboxamide], the IC50 in experiment [1] came to 6 nM; in experiment [2], 9 nM.

For `CC(C)n1cc(-c2ccc(F)cc2)c(=O)c(C(=O)Nc2ncc(Oc3ccnc(N)c3Cl)cn2)n1` [Compound 12, N-(5-((2-amino-3-chloropyridin-4-yl)oxy)pyrimidin-2-yl)-5-(4-fluorophenyl)-1-isopropyl-4-oxo-1,4-dihydropyridazine-3-carboxamide], the IC50 in experiment [1] is 23 nM; in experiment [2], 8 nM.

As to `CC(C)n1cc(-c2ccc(F)cc2)c(=O)c(C(=O)Nc2ccc(Oc3ccnc(N)c3Cl)nc2)n1` [Compound 13, N-(6-((2-amino-3-chloropyridin-4-yl)oxy)pyridin-3-yl)-5-(4-fluorophenyl)-1-isopropyl-4-oxo-1,4-dihydropyridazine-3-carboxamide], the IC50 stood at 9 nM in experiment [1] and 8 nM in experiment [2].

As for `Nc1nccc(Oc2ccc(NC(=O)c3nn(C4CC4)cc(-c4ccc(F)cc4)c3=O)nc2)c1Cl` [Compound 17, N-(5-((2-amino-3-chloropyridin-4-yl)oxy)pyridin-2-yl)-1-cyclopropyl-5-(4-fluorophenyl)-4-oxo-1,4-dihydropyridazine-3-carboxamide], the IC50 in experiment [1] came out at 9 nM; in experiment [2], 2 nM.

With `Nc1nccc(Oc2cnc(NC(=O)c3nn(C4CC4)cc(-c4ccc(F)cc4)c3=O)nc2)c1Cl` [Compound 18, N-(5-((2-amino-3-chloropyridin-4-yl)oxy)pyrimidin-2-yl)-5-(4-fluorophenyl)-1-cyclopropyl-4-oxo-1,4-dihydropyridazine-3-carboxamide], the IC50 in experiment [1] stood at 8 nM; in experiment [2], 6 nM.

Regarding `Nc1nccc(Oc2ccc(NC(=O)c3nn(C4CC4)cc(-c4ccc(F)cc4)c3=O)cn2)c1Cl` [Compound 19, N-(6-((2-amino-3-chloropyridin-4-yl)oxy)pyridin-3-yl)-1-cyclopropyl-5-(4-fluorophenyl)-4-oxo-1,4-dihydropyridazine-3-carboxamide], the IC50 worked out at 12 nM in experiment [1] and 18 nM in experiment [2].

Consider `Cn1cc(-c2ccc(F)cc2)c(=O)c(C(=O)Nc2ccc(Oc3ccnc(N)c3Cl)cn2)n1` [Compound 33, N-(5-((2-amino-3-chloropyridin-4-yl)oxy)pyridin-2-yl)-5-(4-fluorophenyl)-1-methyl-4-oxo-1,4-dihydropyridazine-3-carboxamide], for which the IC50 in experiment [1] was determined as 12 nM; in experiment [2] it was 3 nM.

In the case of `C=CCn1cc(-c2ccc(F)cc2)c(=O)c(C(=O)Nc2ccc(Oc3ccnc(N)c3Cl)cn2)n1` [Compound 35, 1-allyl-N-(5-((2-amino-3-chloropyridin-4-yl)oxy)pyridin-2-yl)-5-(4-fluorophenyl)-4-oxo-1,4-dihydropyridazine-3-carboxamide], the 50% inhibitory concentration (IC50) in experiment [1] and in experiment [2] was 4 nM in each case.

For `C=CCn1cc(-c2ccc(F)cc2)c(=O)c(C(=O)Nc2ncc(Oc3ccnc(N)c3Cl)cn2)n1` [Compound 37], the IC50 in experiment [1] turned out to be 9 nM; in experiment [2] it was 7 nM.

For `C=CCn1cc(-c2ccc(F)cc2)c(=O)c(C(=O)Nc2ccc(Oc3ccnc(N)c3Cl)nc2)n1` [Compound 39, 1-allyl-N-(6-((2-amino-3-chloropyridin-4-yl)oxy)pyridin-3-yl)-5-(4-fluorophenyl)-4-oxo-1,4-dihydropyridazine-3-carboxamide], the IC50 is 12 nM in experiment [1] and 3 nM in experiment [2].
